Results reported in patent publication EP0025288A1, “Derivatives of monic acid, processes for their preparation, compositions containing them and their preparation” (priority 1979, dated 1981).

What was measured:
Format in all cases: cell-based
E coli NCTC 10418 [1] = assay: MIC, human bacteria, serial dilution in nutrient agar; conditions: nutrient agar containing 5% 'chocolated' horse blood
E coli ESS = assay: as above; conditions: nutrient agar containing 5% 'chocolated' horse blood
P mirabilis 889 = assay: as above; conditions: nutrient agar containing 5% 'chocolated' horse blood
K aerogenes A = assay: as above; conditions: nutrient agar containing 5% 'chocolated' horse blood
Ps aeruginosa 10662 = assay: as above; conditions: nutrient agar containing 5% 'chocolated' horse blood
[2] = tested on: Pasteurella multocida 1633; assay: as above; conditions: nutrient agar containing 5% 'chocolated' horse blood
[3] = tested on: Haemophilus influenzae Wy21; assay: as above; conditions: nutrient agar containing 5% 'chocolated' horse blood
[4] = tested on: Neisseria catarrhalis 1502; assay: as above; conditions: Neisseria catarrhalis 1502 (footnote a); nutrient agar containing 5% 'chocolated' horse blood
Bacillus subtilis 6633 = assay: as above; conditions: nutrient agar containing 5% 'chocolated' horse blood
[5] = tested on: Corynebacterium zerosis 9755; assay: as above; conditions: nutrient agar containing 5% 'chocolated' horse blood
Staph aureus Oxford [6] = assay: as above; conditions: nutrient agar containing 5% 'chocolated' horse blood
Staph aureus Russell = assay: as above; conditions: nutrient agar containing 5% 'chocolated' horse blood
Staph aureus W2827 = assay: as above; conditions: nutrient agar containing 5% 'chocolated' horse blood
Strep faecalis I = assay: as above; conditions: nutrient agar containing 5% 'chocolated' horse blood
Strep pyogenes A R80/421 = assay: as above; conditions: Strep pyogenes A R80/421 (footnote b); nutrient agar containing 5% 'chocolated' horse blood
Strep pyogenes B 2788 = assay: as above; conditions: nutrient agar containing 5% 'chocolated' horse blood
Strep pyogenes C 641848 = assay: as above; conditions: Strep pyogenes C 641848 (footnote c); nutrient agar containing 5% 'chocolated' horse blood
Strep pneumoniae CN33 = assay: as above; conditions: nutrient agar containing 5% 'chocolated' horse blood
E coli NCTC 10418 [7] = assay: MIC, veterinary bacteria; conditions: veterinary bacteria (Table 2)
E coli E1 = assay: MIC, veterinary bacteria; conditions: veterinary bacteria (Table 2)
S dublin S7 = assay: MIC, veterinary bacteria; conditions: veterinary bacteria (Table 2)
S typhimurium S18 = assay: MIC, veterinary bacteria; conditions: veterinary bacteria (Table 2)
Bord bronchiseptica BO8 = assay: MIC, veterinary bacteria; conditions: veterinary bacteria (Table 2)
Bord bronchisptica BO9 = assay: MIC, veterinary bacteria; conditions: veterinary bacteria (Table 2)
Past multocida PA1 = assay: MIC, veterinary bacteria; conditions: veterinary bacteria (Table 2)
Past multocida PA2 = assay: MIC, veterinary bacteria; conditions: veterinary bacteria (Table 2)
Past Haemolytica PA5 = assay: MIC, veterinary bacteria; conditions: veterinary bacteria (Table 2)
[8] = tested on: Erysipelothrix rhusiopathiae NCTC 8163; assay: MIC, veterinary bacteria; conditions: veterinary bacteria (Table 2)
[9] = tested on: Corynebacterium pyogenes CY1; assay: MIC, veterinary bacteria; conditions: veterinary bacteria (Table 2)
[10] = tested on: Staph aureus B4 (pen resis); assay: MIC, veterinary bacteria; conditions: veterinary bacteria (Table 2)
[11] = tested on: Staph aureus 152 (pen sens); assay: MIC, veterinary bacteria; conditions: veterinary bacteria (Table 2)
Staph aureus Oxford [12] = assay: MIC, veterinary bacteria; conditions: veterinary bacteria (Table 2)
[13] = tested on: Strep suis (group D) SPS11; assay: MIC, veterinary bacteria; conditions: veterinary bacteria (Table 2)
Strep uberis SPU1 = assay: MIC, veterinary bacteria; conditions: veterinary bacteria (Table 2)
Strep dysgalaciae SPD1 = assay: MIC, veterinary bacteria; conditions: veterinary bacteria (Table 2)
Strep agalactiae SPA1 = assay: MIC, veterinary bacteria; conditions: veterinary bacteria (Table 2)
M. suipneumoniae NB12 = assay: MIC, anti-mycoplasmal, Friis broth solidified with 0.9% agarose; conditions: inoculum 10^3 to 10^5 C.F.U., 6 days incubation at 37°C
M. suipneumoniae JF 435 = assay: as above; conditions: inoculum 10^3 to 10^5 C.F.U., 6 days incubation at 37°C
M. suipneumoniae HK(2) = assay: as above; conditions: inoculum 10^3 to 10^5 C.F.U., 6 days incubation at 37°C
M. suipneumoniae Str. 11 = assay: as above; conditions: inoculum 10^3 to 10^5 C.F.U., 6 days incubation at 37°C
[14] = tested on: M. suipneumoniae J2206/183b; assay: as above; conditions: inoculum 10^3 to 10^5 C.F.U., 6 days incubation at 37°C
M. suipneumoniae MS 16 = assay: as above; conditions: inoculum 10^3 to 10^5 C.F.U., 6 days incubation at 37°C
[15] = tested on: M. suipneumoniae PW/C/210; assay: as above; conditions: inoculum 10^3 to 10^5 C.F.U., 6 days incubation at 37°C
M. suipneumoniae LABER = assay: as above; conditions: inoculum 10^3 to 10^5 C.F.U., 6 days incubation at 37°C
M. suipneumoniae UCD 1 = assay: as above; conditions: inoculum 10^3 to 10^5 C.F.U., 6 days incubation at 37°C
M. suipneumoniae TAM 6N = assay: as above; conditions: inoculum 10^3 to 10^5 C.F.U., 6 days incubation at 37°C
[16] = tested on: M. suipneumoniae ATCC 25095; assay: as above; conditions: inoculum 10^3 to 10^5 C.F.U., 6 days incubation at 37°C
[17] = tested on: M. suipneumoniae NCTC 10110; assay: as above; conditions: inoculum 10^3 to 10^5 C.F.U., 6 days incubation at 37°C
M. hyorhinis ATCC 23234 = assay: as above; conditions: inoculum 10^3 to 10^5 C.F.U., 6 days incubation at 37°C
M. hyorhinis ATCC 25021 = assay: as above; conditions: inoculum 10^3 to 10^5 C.F.U., 6 days incubation at 37°C
[18] = tested on: M. hyosynoviae ATCC 25591; assay: as above; conditions: inoculum 10^3 to 10^5 C.F.U., 6 days incubation at 37°C
M. bovis NCTC 10131 = assay: microbe, parasite or virus in culture; conditions: M. bovis NCTC 10131; inoculum 10^3 to 10^5 C.F.U., 6 days incubation at 37°C
[19] = tested on: M. bovigenitalium ATCC 14173; assay: MIC, anti-mycoplasmal, Friis broth solidified with 0.9% agarose; conditions: inoculum 10^3 to 10^5 C.F.U., 6 days incubation at 37°C
M. dispar NCTC 10125 = assay: as above; conditions: inoculum 10^3 to 10^5 C.F.U., 6 days incubation at 37°C
M. gallisepticum S6 = assay: as above; conditions: inoculum 10^3 to 10^5 C.F.U., 6 days incubation at 37°C
M. pneumoniae ATCC 15492 = assay: as above; conditions: inoculum 10^3 to 10^5 C.F.U., 6 days incubation at 37°C

Q: How did the MIC (E coli NCTC 10418 [1]) turn out when Cyclohexan-4-onyl monate A [Example 8] was run?
A: Its MIC is >100 µm/ml.

Q: What about the MIC (E coli ESS) of the same substance?
A: The MIC was 0.5 µm/ml.

Q: And the MIC (P mirabilis 889)?
A: Its MIC is 100 µm/ml.

Q: And the MIC (K aerogenes A)?
A: Its MIC is >100 µm/ml.

Q: And the MIC (Ps aeruginosa 10662)?
A: Its MIC is >100 µm/ml.

Q: And the MIC [2]?
A: Its MIC is 0.5 µm/ml.

Q: And the MIC [3]?
A: Its MIC is 0.1 µm/ml.

Q: What about the MIC [4] of the same substance?
A: The MIC was “^a0.5 µm/ml”.

Q: What about the MIC (Bacillus subtilis 6633) of the same substance?
A: Its MIC is 0.5 µm/ml.

Q: What about the MIC [5] of the same substance?
A: The MIC was >100 µm/ml.

Q: And the MIC (Staph aureus Oxford [6])?
A: Its MIC is 1.0 µm/ml.

Q: What about the MIC (Staph aureus Russell) of the same substance?
A: Its MIC is 2.5 µm/ml.

Q: What about the MIC (Staph aureus W2827) of the same substance?
A: The MIC was 2.5 µm/ml.

Q: And the MIC (Strep faecalis I)?
A: The MIC was 25.0 µm/ml.

Q: And the MIC (Strep pyogenes A R80/421)?
A: The MIC was “^b0.5 µm/ml”.

Q: What about the MIC (Strep pyogenes B 2788) of the same substance?
A: Its MIC is 0.5 µm/ml.

Q: What about the MIC (Strep pyogenes C 641848) of the same substance?
A: The MIC was “^c0.5 µm/ml”.

Q: What about the MIC (Strep pneumoniae CN33) of the same substance?
A: Its MIC is 0.5 µm/ml.

Q: What about the MIC (E coli NCTC 10418 [7]) of the same substance?
A: The MIC was >80 µg/mL.

Q: And the MIC (E coli E1)?
A: The MIC was >80 µg/mL.

Q: And the MIC (S dublin S7)?
A: The MIC was >80 µg/mL.

Q: What about the MIC (S typhimurium S18) of the same substance?
A: The MIC was >80 µg/mL.

Q: What about the MIC (Bord bronchiseptica BO8) of the same substance?
A: Its MIC is 80 µg/mL.

Q: What about the MIC (Bord bronchisptica BO9) of the same substance?
A: The MIC was 20 µg/mL.

Q: What about the MIC (Past multocida PA1) of the same substance?
A: Its MIC is “.312 µg/mL”.

Q: What about the MIC (Past multocida PA2) of the same substance?
A: Its MIC is “.156 µg/mL”.

Q: What about the MIC (Past Haemolytica PA5) of the same substance?
A: The MIC was 5 µg/mL.

Q: And the MIC [8]?
A: The MIC was 10 µg/mL.

Q: What about the MIC [9] of the same substance?
A: The MIC was >80 µg/mL.

Q: And the MIC [10]?
A: The MIC was 2.5 µg/mL.

Q: And the MIC [11]?
A: Its MIC is 1.25 µg/mL.

Q: And the MIC (Staph aureus Oxford [12])?
A: The MIC was 1.25 µg/mL.

Q: What about the MIC [13] of the same substance?
A: Its MIC is 2.5 µg/mL.

Q: What about the MIC (Strep uberis SPU1) of the same substance?
A: The MIC was “.312 µg/mL”.

Q: And the MIC (Strep dysgalaciae SPD1)?
A: The MIC was “.156 µg/mL”.

Q: And the MIC (Strep agalactiae SPA1)?
A: The MIC was “.625 µg/mL”.

Q: What about the “in vitro MIC” value (M. suipneumoniae NB12) of the same substance?
A: Its value is 0.25 µg/mL.

Q: And the “in vitro MIC” value (M. suipneumoniae JF 435)?
A: Its value is 0.5 µg/mL.

Q: What about the “in vitro MIC” value (M. suipneumoniae HK(2)) of the same substance?
A: The value was 0.5 µg/mL.

Q: What about the “in vitro MIC” value (M. suipneumoniae Str. 11) of the same substance?
A: Its value is 0.25 µg/mL.

Q: What about the “in vitro MIC” value [14] of the same substance?
A: Its value is 0.5 µg/mL.

Q: And the “in vitro MIC” value (M. suipneumoniae MS 16)?
A: The value was 0.25 µg/mL.

Q: What about the “in vitro MIC” value [15] of the same substance?
A: Its value is 0.25 µg/mL.

Q: What about the “in vitro MIC” value (M. suipneumoniae LABER) of the same substance?
A: Its value is 0.25 µg/mL.

Q: And the “in vitro MIC” value (M. suipneumoniae UCD 1)?
A: Its value is 0.5 µg/mL.

Q: And the “in vitro MIC” value (M. suipneumoniae TAM 6N)?
A: The value was 0.5 µg/mL.

Q: And the “in vitro MIC” value [16]?
A: Its value is 0.25 µg/mL.

Q: What about the “in vitro MIC” value [17] of the same substance?
A: Its value is 0.5 µg/mL.

Q: And the “in vitro MIC” value (M. hyorhinis ATCC 23234)?
A: The value was 0.25 µg/mL.

Q: And the “in vitro MIC” value (M. hyorhinis ATCC 25021)?
A: Its value is 0.25 µg/mL.

Q: And the “in vitro MIC” value [18]?
A: The value was 0.1 µg/mL.

Q: And the “in vitro MIC” value (M. bovis NCTC 10131)?
A: The value was 0.025 µg/mL.

Q: What about the “in vitro MIC” value [19] of the same substance?
A: The value was 0.025 µg/mL.

Q: What about the “in vitro MIC” value (M. dispar NCTC 10125) of the same substance?
A: The value was 0.1 µg/mL.

Q: What about the “in vitro MIC” value (M. gallisepticum S6) of the same substance?
A: The value was 5.0 µg/mL.

Q: What about the “in vitro MIC” value (M. pneumoniae ATCC 15492) of the same substance?
A: The value was 1.0 µg/mL.
